Source: ChEMBL document CHEMBL1201862, “PubChem BioAssay data set” (2004)
The source made the active and inactive calls.

What was measured:
[1] = target: Eukaryotic translation initiation factor 4E (Mus musculus, UniProt P63073); test: eIF4E–eIF4G protein interaction inhibitors, dose response, biochemical, TR-FRET (AID 855); assay type: functional;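 also: potency for disrupting eIF4E binding to eIF4GI seen as loss of FRET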
[2] = Luminescence-based counterscreen assay for KLF5 inhibitors: dose response cell-based high throughput screening assay to identify cytotoxic compounds using the IEC-6 intestinal epithelial cell line. [Related pubchem assays: 1700 (Primary screen.), 1834 (Confirmation screen.), 1858 (Summary AID.), 1905 (Counterscreen.)]; assay type: functional
Genome polyprotein = Genome polyprotein (dengue virus type 2, UniProt P29990); test: Dengue-2 NS5 methyltransferase inhibitors, primary screen, biochemical, confirmation dose response (AID 588689); assay type: functional
Genome polyprotein, sequence (P29990 2492-3391 limits assumed): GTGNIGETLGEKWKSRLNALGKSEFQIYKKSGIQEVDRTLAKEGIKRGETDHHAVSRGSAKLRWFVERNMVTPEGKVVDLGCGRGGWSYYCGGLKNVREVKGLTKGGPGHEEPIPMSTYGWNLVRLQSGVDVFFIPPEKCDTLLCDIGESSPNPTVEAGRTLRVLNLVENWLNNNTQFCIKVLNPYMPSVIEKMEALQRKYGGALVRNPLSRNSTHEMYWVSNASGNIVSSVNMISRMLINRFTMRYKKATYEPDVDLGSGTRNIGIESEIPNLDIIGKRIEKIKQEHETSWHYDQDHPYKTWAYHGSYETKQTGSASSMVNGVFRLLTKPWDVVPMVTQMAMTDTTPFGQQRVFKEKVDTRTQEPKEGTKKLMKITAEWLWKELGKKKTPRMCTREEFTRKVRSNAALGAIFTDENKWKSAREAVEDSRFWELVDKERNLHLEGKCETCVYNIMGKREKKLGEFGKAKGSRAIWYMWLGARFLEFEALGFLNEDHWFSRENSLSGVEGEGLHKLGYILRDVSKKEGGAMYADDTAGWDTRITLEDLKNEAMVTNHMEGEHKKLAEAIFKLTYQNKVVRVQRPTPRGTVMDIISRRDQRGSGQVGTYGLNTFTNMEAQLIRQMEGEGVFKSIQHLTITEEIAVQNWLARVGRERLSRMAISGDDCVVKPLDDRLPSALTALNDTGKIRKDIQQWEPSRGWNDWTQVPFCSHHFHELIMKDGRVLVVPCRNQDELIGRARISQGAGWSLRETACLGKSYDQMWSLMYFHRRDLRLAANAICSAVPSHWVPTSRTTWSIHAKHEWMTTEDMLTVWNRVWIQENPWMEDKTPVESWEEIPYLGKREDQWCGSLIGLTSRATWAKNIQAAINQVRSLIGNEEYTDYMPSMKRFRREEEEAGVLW

[3] = target: Heat shock protein HSP 90-alpha (Homo sapiens, UniProt P07900); assay type: functional, organism-based
[4] = C. albicans growth with fluconazole, confirmation, fluorescence, retest (AID 2467); assay type: functional, cell-based
Streptococcus = test: Group A Streptococcus viability loss, dose response, counter-screen for streptokinase expression inhibitor project, luminescence, BacTiterGlo (AID 1915); assay type: functional, organism-based;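 also: potency for reduction of bacterial viability or growth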
[5] = target: ATP-dependent molecular chaperone HSP82 (Candida albicans (strain WO-1) (Yeast), UniProt C4YTQ8); test: loss of DOC-induced GRE-beta-galactosidase reporter signal, dose response, Hsp90 inhibitor project, S. cerevisiae, luminescence (AID 2400); assay type: functional, cell-based;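 also: beta-galactosidase luminescence from glucocorticoid response element reporter as proxy for Hsp90 function; inhibitor potency where signal loss means Hsp90 inhibition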
ATP-dependent molecular chaperone HSP82, sequence (C4YTQ8 whole entry): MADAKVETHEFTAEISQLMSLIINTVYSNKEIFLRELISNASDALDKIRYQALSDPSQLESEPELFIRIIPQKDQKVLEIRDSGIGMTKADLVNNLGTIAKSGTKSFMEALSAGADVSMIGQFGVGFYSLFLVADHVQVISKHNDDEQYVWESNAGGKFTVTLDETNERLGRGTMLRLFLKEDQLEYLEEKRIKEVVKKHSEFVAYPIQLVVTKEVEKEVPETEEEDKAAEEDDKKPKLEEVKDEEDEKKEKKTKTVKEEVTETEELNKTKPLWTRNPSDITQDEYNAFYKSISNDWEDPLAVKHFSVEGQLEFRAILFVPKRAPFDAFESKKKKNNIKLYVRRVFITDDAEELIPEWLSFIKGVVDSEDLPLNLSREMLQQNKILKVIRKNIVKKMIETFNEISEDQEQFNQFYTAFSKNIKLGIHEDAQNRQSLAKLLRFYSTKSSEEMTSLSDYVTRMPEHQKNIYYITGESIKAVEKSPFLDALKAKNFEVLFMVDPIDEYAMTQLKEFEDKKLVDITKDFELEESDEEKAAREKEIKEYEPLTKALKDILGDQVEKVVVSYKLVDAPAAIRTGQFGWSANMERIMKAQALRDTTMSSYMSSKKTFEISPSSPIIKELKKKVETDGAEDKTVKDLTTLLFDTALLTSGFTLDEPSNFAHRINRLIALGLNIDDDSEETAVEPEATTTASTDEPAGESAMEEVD

[6] = NIH-3T3 fibroblast cytotoxicity, dose response, cytotoxicity control, cell-based, fluorescence, Alamar Blue, secondary assay (AID 2327); assay type: functional;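 also: NIH-3T3 mouse fibroblasts cultured with fluconazole at 8 µg/mL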
NS3 = NS3 (Hepatitis C virus, UniProt A3EZJ3); test: PubChem AID 2173; design: species or system Hepacivirus hominis
NS3, sequence (A3EZJ3 whole entry): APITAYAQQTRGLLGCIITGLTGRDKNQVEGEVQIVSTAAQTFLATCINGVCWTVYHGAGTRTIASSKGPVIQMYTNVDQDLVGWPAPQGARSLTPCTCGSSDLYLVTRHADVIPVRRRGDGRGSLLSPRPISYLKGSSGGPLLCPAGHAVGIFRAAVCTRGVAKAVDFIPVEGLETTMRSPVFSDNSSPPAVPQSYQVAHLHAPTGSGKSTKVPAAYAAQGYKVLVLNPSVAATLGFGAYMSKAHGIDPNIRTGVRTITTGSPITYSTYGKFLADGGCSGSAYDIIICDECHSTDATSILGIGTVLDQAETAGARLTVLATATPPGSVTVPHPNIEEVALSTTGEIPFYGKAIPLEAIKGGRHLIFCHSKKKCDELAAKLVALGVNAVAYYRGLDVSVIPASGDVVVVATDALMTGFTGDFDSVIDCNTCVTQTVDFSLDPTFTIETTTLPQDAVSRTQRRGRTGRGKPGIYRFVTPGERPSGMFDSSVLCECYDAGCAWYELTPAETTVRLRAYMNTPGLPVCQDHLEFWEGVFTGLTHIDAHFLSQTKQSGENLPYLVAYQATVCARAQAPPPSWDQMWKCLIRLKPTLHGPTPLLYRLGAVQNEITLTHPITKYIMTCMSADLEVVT

[7] = target: T1, Serine/threonine-protein phosphatase (Candida dubliniensis (strain CD36 / CBS 7987 / NCPF 3949 / NRRLY-17841) (Yeast), UniProt B9W6M3); test: calcineurin pathway inhibitors in yeast reporter, dose response, S. cerevisiae, CDRE-lacZ, luminescence, secondary (AID 2388); assay type: functional, cell-based;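 also: yeast reporter cells carrying a calcineurin-responsive lacZ construct stimulated with calcium chloride; luminescent beta-galactosidase reporter signal in whole cells rather than isolated phosphatase activity; potency for inhibition where a drop in reporter signal means calcineurin blockade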
T1 sequence (B9W6M3 whole entry): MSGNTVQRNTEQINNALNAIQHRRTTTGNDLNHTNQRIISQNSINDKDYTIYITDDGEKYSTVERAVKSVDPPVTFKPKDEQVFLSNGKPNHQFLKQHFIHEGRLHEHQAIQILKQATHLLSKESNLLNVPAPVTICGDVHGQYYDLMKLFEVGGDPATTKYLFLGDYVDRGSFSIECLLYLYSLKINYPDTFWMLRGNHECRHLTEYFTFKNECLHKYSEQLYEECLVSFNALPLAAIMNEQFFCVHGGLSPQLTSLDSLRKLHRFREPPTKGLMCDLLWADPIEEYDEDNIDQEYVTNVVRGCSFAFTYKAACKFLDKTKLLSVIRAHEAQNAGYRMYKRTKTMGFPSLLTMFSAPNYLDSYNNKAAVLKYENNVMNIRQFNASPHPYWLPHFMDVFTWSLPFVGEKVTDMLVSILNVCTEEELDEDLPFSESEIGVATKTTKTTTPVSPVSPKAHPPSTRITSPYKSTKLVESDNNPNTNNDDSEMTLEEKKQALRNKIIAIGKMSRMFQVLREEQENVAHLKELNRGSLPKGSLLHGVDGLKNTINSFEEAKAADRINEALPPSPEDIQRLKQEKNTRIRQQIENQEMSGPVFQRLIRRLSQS

[8] = test system: Streptococcus sp. 'group A'; test: growth inhibition of control SK(-) GAS strain, dose response, counter-screen for streptokinase expression inhibitor project, luminescence, kanamycin, BacTiterGlo, confirmation (AID 1900); assay type: functional, organism-based
Vero = Vero cell cytotoxicity, cytotoxicity control for flavivirus capping enzyme inhibitors (AID 588742); assay type: functional; conditions: Chlorocebus sabaeus
Prothrombin = Prothrombin (Bos taurus, UniProt P00735); test: thrombin inhibition, dose response, biochemical, fluorescence polarization, uHTS hits (AID 602369); assay type: functional
[9] = target: 72 kDa type IV collagenase (Homo sapiens, UniProt P08253); test: Dose Response validation of uHTS RPN11 inhibitor hits using a MMP-2 Fluorescence assay.; assay type: functional
72 kDa type IV collagenase, sequence (P08253 whole entry): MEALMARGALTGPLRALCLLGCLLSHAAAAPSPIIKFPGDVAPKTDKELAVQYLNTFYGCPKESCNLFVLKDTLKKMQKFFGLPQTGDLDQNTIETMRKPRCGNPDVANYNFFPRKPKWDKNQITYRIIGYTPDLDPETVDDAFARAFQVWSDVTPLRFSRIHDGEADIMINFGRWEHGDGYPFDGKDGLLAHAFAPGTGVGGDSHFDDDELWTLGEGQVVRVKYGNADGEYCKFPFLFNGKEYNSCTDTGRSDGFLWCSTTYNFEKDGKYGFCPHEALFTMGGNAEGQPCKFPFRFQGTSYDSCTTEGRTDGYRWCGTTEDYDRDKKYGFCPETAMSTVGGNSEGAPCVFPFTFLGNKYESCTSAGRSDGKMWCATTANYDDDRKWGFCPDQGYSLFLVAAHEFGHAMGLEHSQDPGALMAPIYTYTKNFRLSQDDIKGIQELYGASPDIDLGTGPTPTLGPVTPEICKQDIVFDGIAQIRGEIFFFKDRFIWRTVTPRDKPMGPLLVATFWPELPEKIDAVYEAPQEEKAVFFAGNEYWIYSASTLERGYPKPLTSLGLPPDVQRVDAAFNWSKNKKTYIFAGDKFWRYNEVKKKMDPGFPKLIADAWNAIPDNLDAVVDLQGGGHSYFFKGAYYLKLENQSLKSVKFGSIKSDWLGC

[10] = target: 26S proteasome non-ATPase regulatory subunit 14 (Homo sapiens, UniProt O00487); test: inhibition of proteasome subunit RPN11 – biochemical, fluorescence polarization, uHTS hits, confirmation (AID 602368); assay type: functional
26S proteasome non-ATPase regulatory subunit 14, sequence (O00487 whole entry): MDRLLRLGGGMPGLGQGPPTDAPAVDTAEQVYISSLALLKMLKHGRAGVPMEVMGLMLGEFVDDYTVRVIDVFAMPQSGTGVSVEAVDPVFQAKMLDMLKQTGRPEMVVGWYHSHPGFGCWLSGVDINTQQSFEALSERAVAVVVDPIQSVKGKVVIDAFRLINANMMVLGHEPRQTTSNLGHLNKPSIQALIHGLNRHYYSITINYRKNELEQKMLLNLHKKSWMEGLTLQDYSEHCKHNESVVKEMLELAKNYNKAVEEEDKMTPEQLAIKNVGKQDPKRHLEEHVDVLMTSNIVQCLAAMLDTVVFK

[11] = enhancers of respiration in Yfh1-depleted yeast, dose response, Friedreich's ataxia, plus single-dose screen (AID 1465); assay type: functional;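 also: yeast depleted of Yfh1p frataxin homolog grown on glycerol needing respiration; WST-1 tetrazolium dye reduction as measure of cellular dehydrogenase metabolic activity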
Insulin-degrading enzyme = target: T2, Insulin-degrading enzyme (Homo sapiens, UniProt P14735); test: Dose Response: Fluorescence polarization-based cell-based high throughput dose response assay for inhibitors of insulin-degrading enzyme (IDE). [Related pubchem assays: 434962 (Primary screen (IDE inhibitors in singlicate)), 449730 (Counterscreen (Cytotoxicity in triplicate)), 435028 (Confirmation (IDE inhibitors in triplicate)), 434984 (Summary …; assay type: functional
T2 sequence (P14735 whole entry): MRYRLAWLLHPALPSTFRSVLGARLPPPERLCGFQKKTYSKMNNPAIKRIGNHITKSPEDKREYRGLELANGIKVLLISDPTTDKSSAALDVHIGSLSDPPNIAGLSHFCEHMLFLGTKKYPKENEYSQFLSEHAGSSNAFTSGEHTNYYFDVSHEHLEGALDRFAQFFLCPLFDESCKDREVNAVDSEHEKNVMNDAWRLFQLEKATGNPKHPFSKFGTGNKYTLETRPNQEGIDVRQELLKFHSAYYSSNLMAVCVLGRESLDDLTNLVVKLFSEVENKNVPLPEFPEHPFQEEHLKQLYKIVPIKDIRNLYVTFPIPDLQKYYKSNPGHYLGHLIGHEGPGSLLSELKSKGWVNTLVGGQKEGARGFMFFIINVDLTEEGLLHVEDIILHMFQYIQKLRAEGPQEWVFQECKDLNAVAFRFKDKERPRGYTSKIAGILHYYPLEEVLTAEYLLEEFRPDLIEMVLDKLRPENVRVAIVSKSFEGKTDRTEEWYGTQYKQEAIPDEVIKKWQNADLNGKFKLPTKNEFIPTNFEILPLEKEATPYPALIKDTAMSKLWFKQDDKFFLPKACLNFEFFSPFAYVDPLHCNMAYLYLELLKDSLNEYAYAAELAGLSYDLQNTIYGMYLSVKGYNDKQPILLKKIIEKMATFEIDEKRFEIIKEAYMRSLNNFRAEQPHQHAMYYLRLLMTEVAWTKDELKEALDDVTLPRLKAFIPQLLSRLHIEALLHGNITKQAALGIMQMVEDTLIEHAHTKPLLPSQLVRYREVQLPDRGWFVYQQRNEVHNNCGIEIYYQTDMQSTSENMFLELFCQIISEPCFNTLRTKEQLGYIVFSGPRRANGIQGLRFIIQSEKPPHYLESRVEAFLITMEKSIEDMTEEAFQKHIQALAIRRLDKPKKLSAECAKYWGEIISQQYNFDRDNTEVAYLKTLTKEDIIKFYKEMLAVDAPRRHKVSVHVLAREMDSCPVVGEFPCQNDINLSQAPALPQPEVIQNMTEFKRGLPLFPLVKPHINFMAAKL

[12] = Counterscreen for IDE inhibitors: Luminescence-based cell-based high throughput dose response assay to identify compounds that are cytotoxic to HEK cells. [Related pubchem assays: 434962 (Primary screen (IDE inhibitors in singlicate)), 449730 (Counterscreen (Cytotoxicity in triplicate)), 435028 (Confirmation (IDE inhibitors in triplicate)) …; assay type: functional; conditions: HEK293

Eukaryotic translation initiation factor 4E, sequence (P63073 whole entry): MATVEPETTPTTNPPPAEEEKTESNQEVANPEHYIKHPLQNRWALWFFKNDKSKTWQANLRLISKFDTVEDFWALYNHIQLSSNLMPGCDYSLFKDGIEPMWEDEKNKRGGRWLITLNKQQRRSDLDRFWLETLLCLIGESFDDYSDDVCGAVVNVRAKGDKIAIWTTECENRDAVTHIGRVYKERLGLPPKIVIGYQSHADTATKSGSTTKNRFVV

COc1ccc(OC)c(Nc2nc(=O)c3cccnc3s2)c1
IC50 [1]: 50 µM (inactive)
IC50 [2]: > 39.8 µM (not active)

O=C1C=CC(=NNc2ccccc2)C=CC1=O
IC50 (Genome polyprotein): 91.2 µM (active)
AC50 [3]: 2.02 µM (active)
EC50 [4]: 0.237 µM (active)
EC50 (Streptococcus): 9.57 µM (active)
EC50 [5]: 0.887 µM (active)
EC50 [6]: > 160 µM (inactive)
IC50 (NS3): 12.6 µM (not active)
EC50 [7]: 2.47 µM (active)
EC50 [8]: 2.86 µM (active)
CC50 (Vero): 23 µM (active)

CC(C)NC(=S)N/N=C/c1sc(N2CCCCC2)nc1-c1cccs1
IC50 (Prothrombin): 20.1 µM (active)
IC50 [9]: 9.6 µM (active)
IC50 [10]: 9.24 µM (active)
EC50 [11]: > 100 µM (active)

O=C(NCCC1=CCCCC1)Nc1ccc2nsnc2c1
IC50 (Insulin-degrading enzyme): > 56 µM (not active)
IC50 [12]: 23.8 µM (not active)
